Experiment [1] deals with P388. In words: Cytotoxicity against mouse P388 cells assessed as inhibition of cell growth at 10 uM by MTT method. The experiment is classed as functional. The settings on record: read-out: GI.
For experiment [2], the system named is HL-60. In words: Cytotoxicity against human HL60 cells assessed as inhibition of cell growth at 10 uM by MTT method. It is filed as functional. The note with it: read-out: GI.
The test system of experiment [3] is A549. In words: Cytotoxicity against human A549 cells assessed as inhibition of cell growth at 10 uM by SRB protein staining method. The experiment is classed as functional. The note with it: read-out: GI.
Experiment [4] relates to A549. In words: Cytotoxicity against human A549 cells by SRB protein staining method. It is filed as functional, cell-based.
In experiment [5] the test system is HL-60. In words: Cytotoxicity against human HL60 cells by MTT method. The experiment is classed as functional, cell-based.
The subject of experiment [6] is P388. In words: Cytotoxicity against mouse P388 cells by MTT method. The experiment is classed as functional, cell-based.

Regarding `C=C1[C@@H]([C@@]2(C)C=CC(=O)O[C@@](C)(COC(C)=O)[C@@H]2CC(=O)OC)[C@@H](OC=O)[C@H](OC(=O)C(O)C(C)C)[C@@]2(C)[C@H](c3ccoc3)[C@@H](OC(=O)C(OC(C)=O)C(C)C)[C@H]3O[C@]132` (some centres undefined), the inhibition of growth at 10 µM in the experiment on P388 [1], with HL-60 [2] and with A549 [3] was under 50% each time.
Turning to `CC(=O)O[C@H]1CC(=O)O[C@@]2(C)CO[C@H]3[C@@H](O)[C@]4(C)[C@H](CC[C@@]5(C)[C@H](c6ccoc6)OC(=O)[C@H]6O[C@@]645)[C@]1(C)[C@@H]32`, the inhibition of growth at 10 µM in the experiment on P388 [1], with HL-60 [2] and with A549 [3] was under 50% in each case.
Take `CC(=O)O[C@H]1CC(=O)O[C@@]2(C)CO[C@H]3[C@@H](OC(=O)C(O)C(C)C)[C@]4(C)[C@H](CC[C@@]5(C)[C@H](c6ccoc6)OC(=O)[C@H]6O[C@@]645)[C@]1(C)[C@@H]32` (some centres undefined): the inhibition of growth at 10 µM in the experiment with P388 [1], in the experiment with HL-60 [2] and in the experiment on A549 [3] was under 50% throughout.
Consider `COC(=O)C[C@H](OC(C)=O)[C@]1(C)[C@H]2CC[C@@]3(C)[C@H](c4ccoc4)OC(=O)[C@H]4O[C@]43[C@]2(C)[C@H](OC(C)=O)[C@H](OC(C)=O)[C@H]1C(C)(C)O`, for which the inhibition of growth at 10 µM with P388 [1], in the experiment on HL-60 [2] and in the experiment with A549 [3] was under 50% in each case.
Take `C=C(C)[C@@H]1C[C@@H](O)[C@@]2(C)C3=C[C@H](OC(C)=O)[C@@H](c4ccoc4)[C@]3(C)CC[C@@H]2[C@@]1(C)[C@@H](O)CC(=O)OC`: the inhibition of growth at 10 µM in the experiment on P388 [1], in the experiment on HL-60 [2] and with A549 [3] was under 50% throughout.
With `CC(=O)O[C@@H]1C[C@H]2C(C)(C)[C@H](O)CC[C@]2(C)[C@H]2CC[C@]3(C)C(=CC[C@H]3[C@@]3(O)COC(=O)C3)[C@@]21C`, the inhibition of growth at 10 µM in the experiment with P388 [1], in the experiment on HL-60 [2] and in the experiment with A549 [3] was under 50% throughout.
Take `CC1(C)C(=O)CC[C@]2(C)[C@H]3CC[C@]4(C)C(=CC[C@H]4C4=CC(=O)OC4)[C@]3(C)[C@H](OC(=O)c3ccccc3)C[C@@H]12`: the inhibition of growth at 10 µM in the experiment on P388 [1], in the experiment on HL-60 [2] and in the experiment with A549 [3] was under 50% each time.
For the compound `C=C1[C@@H]([C@@]2(C)[C@@H](OC(C)=O)CC(=O)O[C@@](C)(COC(C)=O)[C@@H]2CC(=O)OC)[C@@H](C(=O)O)[C@H](OC(=O)C(O)C(C)C)[C@@]2(C)[C@H](c3ccoc3)C(OC(=O)C(C)CC)[C@H]3O[C@]132` (some centres undefined), in the experiment with A549 [4], half-maximal inhibition (IC50) was put at 2100 nM.
Regarding `C[C@@H]([C@@H]1O[C@H]1[C@H](O)C(C)(C)O)[C@@H]1CC[C@]2(C)C3=CC[C@H]4C(C)(C)C(=O)CC[C@]4(C)[C@H]3CC[C@@]12C`, the inhibition of growth at 10 µM with HL-60 [2] and in the experiment with A549 [3] was under 50% throughout.
As for `C[C@@H]([C@@H]1O[C@H]1[C@@H](O)C(C)(C)O)[C@@H]1CC[C@]2(C)C3=CC[C@H]4C(C)(C)C(=O)CC[C@]4(C)[C@H]3CC[C@@]12C`, the inhibition of growth at 10 µM in the experiment on P388 [1], in the experiment on HL-60 [2] and with A549 [3] was under 50% in each case.
On to `COc1cccc2c1C(=O)c1c(O)c3c(c(O)c1C2=O)C[C@@](O)(C(=O)CO)C[C@@H]3O[C@H]1C[C@H](N)[C@H](O)[C@H](C)O1` [DOXORUBICIN], for which the results for the concentration for half-maximal inhibition (IC50) in the experiment on HL-60 [5] and with P388 [6] were 58 nM and 200 nM, respectively.

These data come from ChEMBL document CHEMBL3580598, “Limonoids and Triterpenoids from Dysoxylum mollissimum var. glaberrimum” (J Nat Prod, 2015).
